Test results published in paper PMC4170738 (RSC advances, 2014).

What was measured:
[1] = test system: control strain SME3359 (lacZ reporter under synthetic promoter repressed by LacI); test: Control strain dose-response assay; format: cell-based, E. coli; settings: for Control strain IC50: E. coli strain SME3359, 1 mM IPTG, 3 hours at 37°C, 6.2% DMSO; for IC50: Escherichia coli, 3 h, read-out: Control strain IC50
[2] = Stability towards thiol nucleophile glutathione; format: physicochemical; settings: 10 µM in PBS pH 7.4 (1% DMSO), 50 µM GSH, room temperature, up to 48 hours
[3] = test system: E. coli strains SME4382 and SME3359; test: E. coli growth experiments; format: cell-based; settings: VirF and control strains, TY broth, 44 µM compound, 6.2% DMSO, 37°C
VirF [4] = target: T1, VirF (Shigella flexneri, UniProt P0A2T1); test: cell-based; format: cell-based; settings: for VirF IC50: E. coli strain SME4382, virB-lacZ fusion, 1 mM IPTG, 3 hours at 37°C, 6.2% DMSO
VirF [5] = target: T1, VirF; settings: cell-based reporter gene assays with S. flexneri and E. coli; cited from earlier work
[6] = Aqueous stability in PBS pH 7.4 by RP HPLC/UV/HRMS; format: physicochemical; settings: 10 µM in PBS pH 7.4 (1% DMSO), room temperature; by the 0th time point, about 30 minutes elapsed
[7] = test system: VirF-dependent virulence genes (icsS, icsB, ipaB, virB); settings: virB in S. flexneri; cited from earlier work
VirF [8] = target: T1, VirF; settings: purified VirF, in vitro; cited from earlier work

T1 sequence (P0A2T1 whole entry, the tested form may be a part): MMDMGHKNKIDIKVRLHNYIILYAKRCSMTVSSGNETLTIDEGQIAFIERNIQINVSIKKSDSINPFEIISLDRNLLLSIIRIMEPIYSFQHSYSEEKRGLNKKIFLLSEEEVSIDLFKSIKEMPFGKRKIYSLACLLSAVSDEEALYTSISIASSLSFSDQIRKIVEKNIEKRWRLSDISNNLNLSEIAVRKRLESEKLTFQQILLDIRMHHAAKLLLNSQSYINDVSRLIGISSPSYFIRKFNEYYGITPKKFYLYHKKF

Molecule: 1‧-hexyl-[2,3‧-biquinolin]-1‧-ium bromide [Entry 21]
- Control strain IC50 [1]: not inhibiting the control strain

Molecule: 1‧-propyl-[2,3‧-biquinolin]-1‧-ium bromide [Entry 20]
- Control strain IC50 [1]: not inhibiting the control strain

Molecule: Clc1ccc(C[n+]2cc(-c3ccc4ccccc4n3)cc3ccccc32)cc1.[Br-] [Entry 3, 1‧-(4-chlorobenzyl)-[2,3‧-biquinolin]-1‧-ium bromide]
- GSH adduct formation [2]: no GSH adducts were observed

Molecule: CCCCN1C=C(c2cccc(C)n2)C(C[N+](=O)[O-])c2ccccc21 (centres unmarked) [Entry 6, 1-butyl-3-(6-methylpyridin-2-yl)-4-(nitromethyl)-1,4-dihydroquinoline]
- Effect on bacterial growth [3]: inhibited the growth of the bacteria
- IC50 [1]: > 100 µM
- IC50 (VirF [4]): > 100 µM

Molecule: CCCCN1C=C(c2cccc(Cl)c2)C(C[N+](=O)[O-])c2ccccc21 (centres unmarked) [Entry 7, 1-butyl-3-(3-chlorophenyl)-4-(nitromethyl)-1,4-dihydroquinoline]
- IC50 [1]: > 100 µM

Molecule: CCCCN1C=C(c2ccc3ccccc3n2)C(c2ccccc2)c2ccccc21 (centres unmarked) [Entry 8, 1‧-butyl-4‧-phenyl-1‧,4‧-dihydro-2,3‧-biquinoline]
- Control strain IC50 [1]: No inhibition
- VirF IC50 (VirF [4]): No inhibition

Molecule: CCCCN1c2ccccc2C=C(c2ccc3ccccc3n2)C1C (centres unmarked) [Entry 10, 1‧-butyl-2‧-methyl-1‧,2‧-dihydro-2,3‧-biquinoline]
- Control strain IC50 [1]: No inhibition
- VirF IC50 (VirF [4]): No inhibition

Molecule: CCCCn1cc(-c2ccc3ccccc3n2)c2ccccc21 [Entry 12, 2-(1-butyl-1 H-indol-3-yl)quinoline]
- Control strain IC50 [1]: no inhibitory activity
- VirF IC50 (VirF [4]): no inhibitory activity

Molecule: CCCCn1c2ccccc2c(=O)c2ccccc21 [Entry 15, 10-butylacridin-9(10H)-one]
- Control strain IC50 [1]: no inhibitory activity
- VirF IC50 (VirF [4]): no inhibitory activity

Molecule: CCCCCCCCC[n+]1ccccc1.[Br-] [Entry 17, 1-nonylpyridin-1-ium bromide]
- Control strain IC50 [1]: good to modest, non-specific activity
- IC50 [1]: > 50 µM
- IC50 (VirF [4]): > 50 µM
- VirF IC50 (VirF [4]): good to modest, non-specific activity

Molecule: CCCCCCCCC[N+](CC)(CC)CC.[Br-] [Entry 18, N,N,N-triethylnonan-1-aminium bromide]
- Control strain IC50 [1]: no inhibitory activity
- VirF IC50 (VirF [4]): no inhibitory activity

Molecule: CC(C)[n+]1cc(-c2ccc3ccccc3n2)cc2ccccc21.[I-] [Entry 19, 1‧-isopropyl-[2,3‧-biquinolin]-1‧-ium iodide]
- Control strain IC50 [1]: not inhibiting the control strain

Molecule: CCCC[n+]1cc(-c2ccc3ccccc3c2)cc2ccccc21 [Entry 23, 1-butyl-3-(naphthalen-2-yl)quinolin-1-ium bromide]
- IC50 [1]: > 100 µM
- IC50 (VirF [4]): 9 µM

Molecule: C=CCCC[n+]1cc(-c2ccc3ccccc3n2)cc2ccccc21.[Br-] [Entry 24, 1‧-(pent-4-en-1-yl)-[2,3‧-biquinolin]-1’-ium bromide]
- Control strain IC50 [1]: not inhibiting the control strain

Molecule: CCCCN1C=C(c2ccc3ccccc3n2)C(C[N+](=O)[O-])c2ccccc21 (centres unmarked) [SE-1, 1‧-Butyl-4‧-(nitromethyl)-1‧,4’-dihydro-2,3‧-biquinoline]
- Inhibition of transcription activation by VirF (VirF [5]): inhibitor
- Aqueous stability (degradation to the corresponding quaternary salt) [6]: degraded completely
- Expression of VirF-dependent virulence genes (mRNA) [7]: reduced the expression
- Inhibition of DNA binding by VirF (VirF [8]): inhibitor
